Experimental data published in patent US20160356723A1, “Light-Up Probes Based On Fluorogens With Aggregation Induced Emission Characteristics For Cellular Imaging And Drug Screening” (NATIONAL UNIVERSITY OF SINGAPORE, priority 2014, published 2016).

Assays:
[1] = target: T1, recombinant human caspase-3 (Homo sapiens, UniProt P42574); experiment: Enzymatic assay: fluorescence light-up on DEVD cleavage by caspase-3; type: biochemical
T1 construct: purchased R&D Systems
T1 sequence (P42574 29-175 limits assumed): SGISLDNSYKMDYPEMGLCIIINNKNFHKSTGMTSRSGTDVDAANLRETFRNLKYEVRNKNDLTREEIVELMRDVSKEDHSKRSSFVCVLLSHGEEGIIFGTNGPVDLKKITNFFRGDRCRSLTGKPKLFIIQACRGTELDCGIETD
T1 sequence (P42574 176-277 limits assumed): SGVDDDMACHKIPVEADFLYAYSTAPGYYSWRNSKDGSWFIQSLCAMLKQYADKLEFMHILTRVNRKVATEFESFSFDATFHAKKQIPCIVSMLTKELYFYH
Experimental: DMSO stock solutions of TPS-DEVD-Pt-cRGD were diluted with a mixture of DMSO and PIPES (v/v=1/199) to 10 μM. Next, each probe was incubated with ascorbic acid or caspase-3 at room temperature and the change of fluorescence intensity was measured. The PL spectra were collected from 420 to 650 nm under an excitation wavelength at 365 nm.
To study the enzymatic response of TPS-DEVD-COOH, we performed in vitro enzymatic assays with recombinant human caspase-3. Mixtures of the ascorbic acid pretreated prodrug (10 μM) and caspases-3 (200 pM) were prepared and incubated in PIPES buffer. After 1 h incubation, the PL spectra were measured in the range from 425 to 650 nm.
The fluorescence change of the TPS-DEVD-Pt-cRGD solution (10 μM) upon addition of ascorbic acid and caspase-3 enzyme was also monitored over time in a mixture of DMSO/PIPEs (v/v=1/199) buffer. […] We further studied the effect of caspase-3 concentration on the solution emission.

MDA-MB-231 cells = experiment: MTT cytotoxicity, MDA-MB-231; type: cell-based; conditions: different concentrations, 72 h
Description: (§1) We next studied the cytotoxicity profile of the prodrug to MDA-MB-231 and MCF-7 cells by a MTT assay.

MCF-7 cells [2] = experiment: MTT cytotoxicity, MCF-7; type: cell-based; conditions: 72 h
Experimental: 3-(4,5-Dimethythiazol-2-yl)-2,5-diphenyltetrazolium bromide (MTT) assays were used to assess the metabolic activity of U87-MG and MCF-7 cancer cells. The cells were seeded in 96-well plates (Costar, Ill., USA) at an intensity of 4×10^4 cells mL^−1. After 24 h incubation, the medium was replaced by the probe suspension at different concentration of the prodrug and incubated at 37° C. After the designated time intervals, the wells were washed twice with 1×PBS buffer, and 100 μL of freshly prepared MTT (0.5 mg mL^−1) solution in culture medium was added into each well. The MTT medium solution was carefully removed after 3 h incubation in the incubator at 37° C. DMSO (100 μL) was then added into each well and the plate was gently shaken to dissolve all the precipitates formed. The absorbance of MTT at 570 nm was monitored by the microplate reader (Genios Tecan). Cell viability was expressed by the ratio of absorbance of the cells incubated with probe suspension to that of the cells incubated with culture medium only.
We next compared the relationship between the apoptosis induced fluorescence intensity change in cells and the cytotoxicity profile of the prodrug using both U87-MG and MCF-7 cells as an example. The fluorescence intensities at 480 nm are monitored upon excitation at 365 nm after incubation the cells for 6 h. The cytotoxicity of the cells was evaluated by a standard MTT method after the incubation for 72 h. In this experiment, we studied this effect using both U87-MG and MCF-7 cells. […] Also, we can find that higher cell viability of the cells will show lower fluorescence intensity which means low degrees of cell apoptosis. For example, when both cells are treated with 5 μM TPS-DEVD-Pt-cRGD, the cell viability is only 31% for U87-MG cells after 72 h incubation, while in sharp contrast, the cell viability is 92% for MCF-7 cells at the same conditions.
as §1

MCF-7 cells [3] = experiment: Confocal imaging of drug-induced apoptosis, MCF-7; type: cell-based; conditions: 5 μM probe, 6 h incubation, low integrin expression
Experimental: (§2) U87-MG, MCF-7 and 293T cells were cultured in the chambers (LAB-TEK, Chambered Coverglass System) at 37° C. After 80% confluence, the culture medium was removed and washed twice with PBS buffer. The probe in DMSO stock solution was then added to the chamber to reach a final concentration of 5 μM. In some experiments, the cells were pre-incubated with media containing cRGD (50 μM) or inhibitor (5 μM) prior to prodrug incubation. After incubation the prodrug at 37° C. for 2 h, the medium was replaced with fresh medium, after that the cells were washed twice with ice-cold PBS and the cell nucleus was living stained with DRAQ5 (Biostatus) following the standard protocol of the manufacturer. […] The images were analyzed by Image J 1.43 x program (developed by NIH, http://rsbweb.nih.gov/ij/).
(§3) To explore the capability of using TPS-DEVD-Pt-cRGD as a targeted drug delivery system and a drug induced apoptosis imaging probe in cancer cells. […] After 2 h of incubation, the cells were treated with cisplatin or staurosporine which both can activate the cell apoptosis and monitored with confocal microscopy. […] As the incubation time elapses, the fluorescence of U87-MG increases gradually with the cellular apoptotic progress, which reaches a maximum at 6 h. […]

[4] = system: lysozyme, pepsin, bovine serum albumin (BSA) and trypsin; experiment: Selectivity of fluorescence response against other proteins; type: biochemical; conditions: 10 μM ascorbic acid pretreated probe, identical conditions as caspase-3
Experimental: (§4) To study the selectivity of the prodrug, we incubated ascorbic acid pretreated TPS-DEVD-Pt-cRGD (10 μM) with several proteins, including lysozyme, pepsin, bovine serum albumin (BSA) and trypsin under identical conditions. […] As there are many different kinds of proteins or enzymes inside the cells, we further obtained the cellular lysate of normal and apoptotic U87-MG cells, which were pretreated with commonly used cell apoptosis inducer staurosporine (STS, 2 μM) to activate the caspase-3 enzyme in the cells. The cell lysates were directly incubated with TPS-DEVD-Pt-cRGD (5 μM) and the fluorescence intensity at 485 nm was monitored over time.

293T cells = experiment: Confocal imaging of drug-induced apoptosis, 293T; type: cell-based; conditions: 5 μM probe, 6 h incubation, low integrin expression
Experimental: as §2, §3

Solubility in water = type: physicochemical; conditions: DMSO/PIPEs v/v=1/199
[5] = Effect of ionic strength (NaCl) on emission; type: physicochemical; conditions: NaCl 0 to 960 mM
Description: We next studied the optical properties of our prodrug. The UV-vis absorption spectra of TPS-CH2N3 in THF and TPS-DEVD-Pt-cRGD in DMSO/PIPES (v/v=1/199) buffer were obtained. Both have similar absorption profiles with an obvious absorbance in the 320-440 nm range with a little blue shift after the modification of the AIE fluorogen. It is known that AIE fluorogen is non-fluorescent in good solvents but emits intensely in solid or as aggregates in poor solvents. […] As biosensing is often conducted in buffers, it is important to study the effect of ionic strength on the emission behavior of the prodrug. The experiments were performed with addition of sodium chloride into an aqueous solution of TPS-DEVD-Pt-cRGD (10 μM). […] TPS-DEVD-Pt-cRGD and its reduction product maintain an “off” state in the complex environment and thus have great potential to serve as a specific light-up apoptosis sensor for drug effect study with minimum background interference.
The photoluminescence (PL) spectra of TPE-CH2NH2 and TPE-SS-D5-cRGD in DMSO and phosphate buffered saline (PBS, pH=7.4) mixtures (v/v=1/199) are shown in FIG. 13A. […] [12] The TPE-SS-D5-cRGD probe is almost non-fluorescent in the same medium (Φ=0.001), due to the easy intramolecular rotations of the TPE phenyl rings in aqueous media. […]

U87-MG cells = experiment: Confocal imaging of drug-induced apoptosis, U87-MG; type: cell-based, human
Experimental: as §2, §3

[6] = system: apoptotic U87-MG cell lysate; experiment: Fluorescence in apoptotic cell lysate (STS pretreated); type: biochemical, human; conditions: 5 μM probe, lysate of cells pretreated with STS 2 μM
Experimental: as §4

[7] = system: normal U87-MG cell lysate; experiment: Fluorescence in normal cell lysate; type: biochemical, human; conditions: 5 μM probe, lysate of normal cells
Experimental: as §4

ALP = ALP detection in solution; type: biochemical; conditions: emission maximum changes from 520 nm to 640 nm
Description: The emission maximum of the solution changes from 520 nm to 640 nm in the presence of ALP.

Question: With COC[C@@H]1CCCN1S(=O)(=O)c1ccc2c(c1)C(=O)C(=O)N2 [5-[(S)-(+)-2-(methoxymethyl)pyrrolidino]sulfonylisatin, reference compound] as the molecule, how does the “effect of inhibitor pretreatment on caspase-3 induced probe fluorescence” value ([1]; ascorbic acid pretreated TPS-DEVD-Pt-cRGD 10 μM, caspase-3 200 pM, inhibitor 10 μM) read?
Answer: The value was “most of the fluorescence is readily competed away”.

Question: Which results are given for N=C(N)NCCC[C@@H]1NC(=O)[C@H](CCCCNC(=O)[C@H](CC(=O)O)NC(=O)[C@H](CC(=O)O)NC(=O)[C@H](CC(=O)O)NC(=O)[C@H](CC(=O)O)NC(=O)[C@H](CC(=O)O)NC(=O)CCCCCCC(=O)NCCCC[n+]2ccc(/C=C/c3ccc(C(=C(c4ccccc4)c4ccccc4)c4ccccc4)cc3)cc2)NC(=O)[C@@H](Cc2ccccc2)NC(=O)[C@H](CC(=O)O)NC(=O)CNC1=O [PyTPE-C6-D5-cRGD]?
Answer: cytotoxicity (MDA-MB-231 cells): do not show significant cytotoxicity; cytotoxicity (MCF-7 cells [2]): do not show significant cytotoxicity

Question: Which results are given for N=C(N)NCCC[C@@H]1NC(=O)[C@H](CCCCNC(=O)[C@H](CC(=O)O)NC(=O)[C@H](CC(=O)O)NC(=O)[C@H](CC(=O)O)NC(=O)[C@H](CC(=O)O)NC(=O)[C@H](CC(=O)O)NC(=O)CCC(=O)[O][Pt-2]([NH3+])([NH3+])([Cl])([Cl])[O]C(=O)CCC(=O)NCCCC[n+]2ccc(/C=C/c3ccc(C(=C(c4ccccc4)c4ccccc4)c4ccccc4)cc3)cc2)NC(=O)[C@@H](Cc2ccccc2)NC(=O)[C@H](CC(=O)O)NC(=O)CNC1=O [PyTPE-Pt-D5-cRGD]?
Answer: cytotoxicity (MDA-MB-231 cells): much more obvious; cytotoxicity (MCF-7 cells [2]): minimum toxicity

Question: For [NH3+][Pt-2]([NH3+])([Cl])([Cl])([O]C(=O)CCC(=O)NCCCC[n+]1ccc(/C=C/c2ccc(C(=C(c3ccccc3)c3ccccc3)c3ccccc3)cc2)cc1)[O]C(=O)CCC(=O)N[C@@H](CC(=O)O)C(=O)N[C@@H](CC(=O)O)C(=O)N[C@@H](CC(=O)O)C(=O)N[C@@H](CC(=O)O)C(=O)N[C@@H](CC(=O)O)C(=O)O [PyTPE-Pt-D5], which cytotoxicity (MDA-MB-231 cells) is on record?
Answer: The cytotoxicity was “do not show significant cytotoxicity”.

Question: And the cytotoxicity (MCF-7 cells [2])?
Answer: Its cytotoxicity is “do not show significant cytotoxicity”.

Question: With CC(C)[C@H](NC(=O)[C@H](CCC(=O)O)NC(=O)[C@H](CC(=O)O)NC(=O)CCC(=O)[O][Pt-2]([NH3+])([NH3+])([Cl])([Cl])[O]C(=O)CCC(=O)NCCCC[C@@H]1NC(=O)[C@@H](Cc2ccccc2)NC(=O)[C@H](CC(=O)O)NC(=O)CNC(=O)[C@H](CCCNC(=N)N)NC1=O)C(=O)N[C@@H](CC(=O)O)C(=O)N[C@@H](Cc1cn(Cc2ccc(C3=C(c4ccccc4)C(c4ccccc4)=C(c4ccccc4)[Si]3(C)C)cc2)nn1)C(N)=O [TPS-DEVD-Pt-cRGD] as the molecule, how does the cell fluorescence (MCF-7 cells [3]) read?
Answer: The cell fluorescence was “weak fluorescence signal”.

Question: What about the “fluorescence intensity with other proteins” value [4] of the same molecule?
Answer: The value was “remain low”.

Question: What about the cell fluorescence (293T cells) of the same molecule?
Answer: The cell fluorescence was “weak fluorescence signal”.

Question: And the solubility in water (Solubility in water)?
Answer: Its solubility in water is “good solubility in water”.

Question: And the “change of fluorescence with NaCl” value [5]?
Answer: The value was “Almost no change”.

Question: What about the “incubation time at which cell fluorescence reaches maximum” value (U87-MG cells; 5 μM probe, real-time imaging) of the same molecule?
Answer: The value was 6 h.

Question: And the “cell fluorescence after pretreatment with free cRGD or/and caspase-3 inhibitor” value (U87-MG cells; cRGD 50 μM or inhibitor 5 μM before probe)?
Answer: The value was “weak fluorescence”.

Question: And the “fluorescence intensity at 485 nm over time” value [6]?
Answer: The value was “increases quickly”.

Question: What about the “fluorescence intensity at 485 nm (stability to cellular proteins)” value [7] of the same molecule?
Answer: The value was “minimum change”.

Question: What about the “fluorescence increase over intrinsic emission with caspase-3” value ([1]; 10 μM probe pretreated with ascorbic acid, DMSO/PIPES v/v=1/199, PL at 485 nm, 60 min) of the same molecule?
Answer: The value was 28 fold.

Question: And the “time to fluorescence plateau after caspase-3 addition” value ([1]; 10 μM probe, ascorbic acid and caspase-3, DMSO/PIPES v/v=1/199)?
Answer: Its value is 60 min.

Question: And the “detection limit for caspase-3” value ([1]; three times sigma method, 10 μM probe, 1 h)?
Answer: Its value is 1 pM.

Question: Which “optical response to ALP” value (ALP) does the source give for CN(C)c1ccc(/C=C/C(=O)c2ccccc2OP(=O)(O)O)cc1 [probe-1] here?
Answer: The value was “distinct optical response”.
